Test results taken from patent US8822530B2, “Sulfur derivatives as chemokine receptor modulators” (Allergan, Inc., priority 2010, dated 2014).

The molecules below were run against T1, CCR2 receptor (Homo sapiens, UniProt P41597) (assay: Calcium activity assay on FLIPR Tetra in HEK-Gqi5 cells stably expressing CCR2).
T1 construct: expressed in transfected cells
Type: cell-based
Method: HEK-Gqi5 cells stably expressing CCR2 were cultured in DMEM high glucose, 10% FBS, 1% PSA, 400 μg/ml geneticin and 50 μg/ml hygromycin. Appropriate positive control chemokines (MCP-1, MIP1A or RANTES) was used as the positive control agonist for screening compound-induced calcium activity assayed on the FLIPR^Tetra. The drug plates were prepared in 384-well microplates using the EP3 and the MultiPROBE robotic liquid handling systems. Compounds were synthesized and tested for CCR2 activity.

T1 sequence (P41597 whole entry): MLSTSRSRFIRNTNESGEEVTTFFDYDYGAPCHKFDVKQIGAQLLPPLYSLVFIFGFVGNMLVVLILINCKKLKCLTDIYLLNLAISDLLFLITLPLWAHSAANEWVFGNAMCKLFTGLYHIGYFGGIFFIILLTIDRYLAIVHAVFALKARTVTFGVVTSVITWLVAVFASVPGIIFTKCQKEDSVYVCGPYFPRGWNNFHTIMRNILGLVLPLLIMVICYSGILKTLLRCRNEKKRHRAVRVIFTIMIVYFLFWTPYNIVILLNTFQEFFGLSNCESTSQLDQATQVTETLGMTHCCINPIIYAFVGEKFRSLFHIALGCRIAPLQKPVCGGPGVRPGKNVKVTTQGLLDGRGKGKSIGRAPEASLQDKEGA

| CCR2 % ANTAGONISM | IC50 | SMILES |
| --- | --- | --- |
| 93% | 272 nM | COC(=O)c1ccccc1CSc1ccc(F)cc1NS(=O)(=O)c1cc2ccccc2o1 [methyl 2-[({2-[(1-benzofuran-2-ylsulfonyl)amino]-4-fluorophenyl}sulfanyl)methyl]benzoate] |
| 91% | 140 nM | COC(=O)c1ccccc1C[S+]([O-])c1ccc(F)cc1NS(=O)(=O)c1cc2ccccc2o1 (centres unmarked) [methyl 2-[({2-[(1-benzofuran-2-ylsulfonyl)amino]-4-fluorophenyl}sulfinyl)methyl]benzoate] |
| 90% | 41 nM | COC(=O)c1ccccc1CS(=O)(=O)c1ccc(F)cc1NS(=O)(=O)c1cc2ccccc2o1 [methyl 2-[({2-[(1-benzofuran-2-ylsulfonyl)amino]-4-fluorophenyl}sulfonyl)methyl]benzoate] |
| 91% | 864 nM | COC(=O)CCSc1ccc(Cl)cc1NS(=O)(=O)c1cc2ccccc2o1 [methyl 3-({2-[(1-benzofuran-2-ylsulfonyl)amino]-4-chlorophenyl}sulfanyl)propanoate] |
| 99% | 217 nM | COC(=O)CC[S+]([O-])c1ccc(Cl)cc1NS(=O)(=O)c1cc2ccccc2o1 (centres unmarked) [methyl 3-({2-[(1-benzofuran-2-ylsulfonyl)amino]-4-chlorophenyl}sulfinyl)propanoate] |
| 96% | 225 nM | COC(=O)CCS(=O)(=O)c1ccc(Cl)cc1NS(=O)(=O)c1cc2ccccc2o1 [methyl 3-({2-[(1-benzofuran-2-ylsulfonyl)amino]-4-chlorophenyl}sulfonyl)propanoate] |
| 57% | 1360 nM | COC(=O)c1cccc(CSc2ccc(Cl)cc2NS(=O)(=O)c2ccc(Cl)c(C(F)(F)F)c2)c1 [methyl 3-({[4-chloro-2-({[4-chloro-3-(trifluoromethyl)phenyl]sulfonyl}amino)phenyl]sulfanyl}methyl)benzoate] |
| 93% | 3110 nM | COC(=O)c1cccc(C[S+]([O-])c2ccc(Cl)cc2NS(=O)(=O)c2ccc(Cl)c(C(F)(F)F)c2)c1 (centres unmarked) [methyl 3-({[4-chloro-2-({[4-chloro-3-(trifluoromethyl)phenyl]sulfonyl}amino)phenyl]sulfinyl}methyl)benzoate] |
| 55% | 2970 nM | COC(=O)c1cccc(CS(=O)(=O)c2ccc(Cl)cc2NS(=O)(=O)c2ccc(Cl)c(C(F)(F)F)c2)c1 [methyl 3-({[4-chloro-2-({[4-chloro-3-(trifluoromethyl)phenyl]sulfonyl}amino)phenyl]sulfonyl}methyl)benzoate] |
| 79% | 995 nM | COC(=O)CCSc1ccc(Cl)cc1NS(=O)(=O)c1ccc(Cl)cc1F [methyl 3-[(4-chloro-2-{[(4-chloro-2-fluorophenyl)sulfonyl]amino}phenyl)sulfanyl]propanoate] |
| 93% | 98 nM | COC(=O)CC[S+]([O-])c1ccc(Cl)cc1NS(=O)(=O)c1ccc(Cl)cc1F (centres unmarked) [methyl 3-[(4-chloro-2-{[(4-chloro-2-fluorophenyl)sulfonyl]amino}phenyl)sulfinyl]propanoate] |
| 82% | 212 nM | COC(=O)CCS(=O)(=O)c1ccc(Cl)cc1NS(=O)(=O)c1ccc(Cl)cc1F [methyl 3-[(4-chloro-2-{[(4-chloro-2-fluorophenyl)sulfonyl]amino}phenyl)sulfonyl]propanoate] |
| 43% | 657 nM | CC(C)(C)OC(=O)CNC(=O)c1ccc(CSc2ccc(Cl)cc2NS(=O)(=O)c2ccc(Cl)c(C(F)(F)F)c2)cc1 [tert-butyl ({[4-({[4-chloro-2-({[4-chloro-3-(trifluoromethyl)phenyl]sulfonyl}amino)phenyl]sulfanyl}methyl)phenyl]carbonyl}amino)acetate] |
| 93% |  | CC(C)(C)OC(=O)CNC(=O)c1ccc(C[S+]([O-])c2ccc(Cl)cc2NS(=O)(=O)c2ccc(Cl)c(C(F)(F)F)c2)cc1 (centres unmarked) [tert-butyl ({[4-({[4-chloro-2-({[4-chloro-3-(trifluoromethyl)phenyl]sulfonyl}amino)phenyl]sulfinyl}methyl)phenyl]carbonyl}amino)acetate] |
| 77% | 2660 nM | CC(C)(C)OC(=O)CNC(=O)c1ccc(CS(=O)(=O)c2ccc(Cl)cc2NS(=O)(=O)c2ccc(Cl)c(C(F)(F)F)c2)cc1 [tert-butyl ({[4-({[4-chloro-2-({[4-chloro-3-(trifluoromethyl)phenyl]sulfonyl}amino)phenyl]sulfonyl}methyl)phenyl]carbonyl}amino)acetate] |
